Laboratory results taken from article PMC5359555, “Mechanistic and structural basis of bioengineered bovine Cathelicidin-5 with optimized therapeutic activity” (Scientific Reports, 2017).
Where “and” joins values, the source holds several entries; their conditions need not be identical. Equal values may be shown once. Where a SMILES comes first, the peptide text is derived from it.

Columns and labels:
[1] = not given; remark: listed apart in the source
[2] = not given; remark: listed apart in the source
[3] = tested on: Plasmodium falciparum strain 3D7; experiment: microbe, parasite or virus in culture; format: cell-based; settings: for antimalarial activity (in words): at 10 and 30 μM
Experimental: Plasmodium falciparum strain 3D7 was cultured in RPMI-1640 supplemented with 25 mg/l L-Glutamine; HEPES, NaHCO3; 50 mg/l Hypoxanthin; Gentamicien; 10% human serum; and RBCs at 3% hematocrit in an atmosphere of 5% CO2, 5% O2, and 90% N2 at 37°C as previously described. The Plasmodium lactate dehydrogenase (pLDH) assay was performed to measure the parasitic growth inhibition as described elsewhere[49] with BMAP-28 and its analogues treatment. In brief, malstat reagent was added to a 96-well plate (100 μL in each well). A Plasmodium infected RBC mixture of 20 μL in each well was mixed thoroughly using a plate shaker. And then 10 μL of each 1 mg/ml diaphorase and Nitroblue tetrozolium (NBT) were added to each well. The solution in the 96-well plate was mixed properly until a brown color appears and the absorbance was measured at 650 nm under a plate reader (PowerWaveHT, BioTek Instruments, USA). The hemolytic assay was carried out as described earlier. Briefly, RBCs prepared from fresh blood (Hematocrit ~5%) were incubated for 1 h at 37 °C after addition of test peptides. Relative hemoglobin concentration in supernatants after centrifugation at 2000× g for 5 min was monitored by measuring the absorbance at 540 nm by the plate reader (PowerWaveHT, BioTek Instruments, USA). As positive control, 100% hemolysis was taken from samples in which 2% Triton X-100 was added.

B16-F1 melanoma cells = experiment: MTT cell-viability assay, B16-F1 melanoma; format: cell-based, mouse
Experimental: (§1) The T-cell lymphoma (Jurkat) and B-cell lymphoma (Ramos) were cultured using RPMI-1640 medium supplemented with 10% fetal calf serum (FCS), 100 U ml^−1 penicillin and 100 μg ml^−1 streptomycin. An initial cell densities of 5 × 10^3 cells/well was uniformly maintained in a 96 well plate. The B16-F1 melanoma cells were grown in DMEM medium containing 10% FCS, 100 U ml^−1 penicillin and 100 μg ml^−1 streptomycin and 55 μM 2-mercaptoethanol. The cells were trypsinized and plated in a 96-well plate at a density of 5 × 10^3 cells/well. The cells were grown overnight at 37 °C using a 5% CO2 incubator. The cells were treated with different peptide concentration followed by cell proliferation assay. The MTT assay kit (Cayman chemicals, USA) was used to measure the cell viability at a peptide concentration varying from 2 to 15 μM (in triplicate). Fresh culture medium and cells in medium without peptide were considered as negative and positive controls for viability assay and was monitored at 24, 48 and 72 h. The Cayman MTT cell proliferation assay protocol was followed, and the absorbance were recorded at 570 nm using a microplate reader (PowerWaveHT, BioTek Instruments, USA).

[4] = tested on: Gram-positive and Gram-negative strains (E. coli BL21, Bacillus subtilis, Staphylococcus epidermis); format: cell-based; settings: even at one order higher concentration than MIC ~2 μM
Experimental: The Escherichia coli strains BL21 and DH5α were obtained from Novagen and Takara Clontech, respectively. The Bacillus subtilis (3009) and Staphylococcus epidermis (12993) were purchased from NITE Biological Resource Center (NBRC, Japan). The bacterial growth procedures followed in this study were described elsewhere. The mid-log phase microbial growth (~4 × 10^7 cells/mL, 5 μL) was used for growth assay in a 96-well plate (5 replicates) at a variable peptide concentration incubated at 37 °C for 12–48 h.

B-cell lymphoma (Ramos) = format: cell-based; settings: at a concentration higher than 30 μM
Experimental: as §1, with “The MTT assay kit (Cayman chemicals, USA) was used to measure the cell viability at a peptide concentration varying from 2 to 15 μM (in triplicate).” left out

Structure (SMILES)	antimicrobial activity (in words) [4]	anticancer activity (in words) (B-cell lymphoma (Ramos))	antimalarial activity (in words) [3]	other results
CC[C@H](C)[C@H](NC(=O)[C@H](CCCNC(=N)N)NC(=O)[C@@H](NC(=O)[C@@H](NC(=O)[C@@H]1CCCN1C(=O)[C@@H](NC(=O)[C@@H](NC(=O)[C@@H](NC(=O)[C@@H]1CCCN1C(=O)CNC(=O)[C@H](Cc1ccc(O)cc1)NC(=O)[C@H](CCCCN)NC(=O)[C@H](CCCCN)NC(=O)[C@H](Cc1c[nH]c2ccccc12)NC(=O)[C@H](C)NC(=O)[C@H](CCCNC(=N)N)NC(=O)[C@H](CC(C)C)NC(=O)[C@@H](NC(=O)[C@H](CCCCN)NC(=O)[C@H](CCCNC(=N)N)NC(=O)CNC(=O)[C@H](CC(C)C)NC(=O)[C@H](CO)NC(=O)[C@H](CCCNC(=N)N)NC(=O)[C@H](CC(C)C)NC(=O)CNC(=O)CN)[C@@H](C)CC)[C@@H](C)CC)[C@@H](C)CC)C(C)C)[C@@H](C)CC)[C@@H](C)CC)C(=O)NCC(=O)O (H-GGLRSLGRKILRAWKKYGPIIVPIIRIG-OH)	–	–	–	β content: 14.3% and 21.5%; β-sheet content [1]: 7.1% and 25.3% and 7.5%; α content [2]: 11.1% and 11.9%
C[C@@H]1CC[C@H]2[C@@H](C)C(=O)O[C@@H]3O[C@@]4(C)CC[C@@H]1[C@]32OO4 [Art, artemisinin, reference compound]	–	–	–	inhibition at 5 µM ([3]; Plasmodium falciparum, 3D7, 5 μM, positive control, pLDH assay, read-out: growth inhibition (%) of P. falciparum): 100%
CC[C@H](C)[C@H](NC(=O)[C@H](CCCCN)NC(=O)[C@H](CCCNC(=N)N)NC(=O)CNC(=O)[C@H](CC(C)C)NC(=O)[C@H](CO)NC(=O)[C@H](CCCNC(=N)N)NC(=O)[C@H](CC(C)C)NC(=O)CNC(=O)CN)C(=O)N[C@@H](CC(C)C)C(=O)N[C@@H](CCCNC(=N)N)C(=O)N[C@@H](C)C(=O)N[C@@H](Cc1c[nH]c2ccccc12)C(=O)N[C@@H](CCCCN)C(=O)N[C@@H](CCCCN)C(=O)N[C@@H](Cc1ccc(O)cc1)C(=O)NCC(N)=O [BMAP-28_1–18] (H-GGLRSLGRKILRAWKKYG-NH2; N-terminus assumed)	–	–	–	concentration found to be active (B16-F1 melanoma cells): ~ 30 μM; anticancer activity (in words) (B16-F1 melanoma cells; 10 μM): fairly low anticancer activity
CC(C)C[C@H](NC(=O)CNC(=O)CN)C(=O)N[C@@H](CCCNC(=N)N)C(=O)N[C@@H](CO)C(=O)N[C@@H](CC(C)C)C(=O)NCC(=O)N[C@@H](CCCNC(=N)N)C(=O)N[C@@H](CCCCN)C(=O)N[C@@H](C)C(=O)N[C@@H](C)C(=O)N[C@@H](CCCNC(=N)N)C(=O)N[C@@H](C)C(=O)N[C@@H](Cc1c[nH]c2ccccc12)C(=O)N[C@@H](CCCCN)C(=O)N[C@@H](CCCCN)C(=O)N[C@@H](Cc1ccc(O)cc1)C(=O)NCC(N)=O [Syn2] (H-GGLRSLGRKAARAWKKYG-NH2; N-terminus assumed)	loss of activity	loss-of activity	very low potentiality	–
CC[C@H](C)[C@H](NC(=O)[C@H](CCCCN)NC(=O)[C@H](CCCNC(=N)N)NC(=O)CN)C(=O)N[C@@H](CC(C)C)C(=O)N[C@@H](CCCNC(=N)N)C(=O)N[C@@H](C)C(=O)N[C@@H](Cc1c[nH]c2ccccc12)C(=O)N[C@@H](CCCCN)C(=O)N[C@@H](CCCCN)C(=O)N[C@@H](Cc1ccc(O)cc1)C(=O)NCC(N)=O [Syn3] (H-GRKILRAWKKYG-NH2; N-terminus assumed)	loss of activity	loss-of activity	very low potentiality	–
